Measurements: patent US20070122414A1, “Surface marker-directed cancer therapeutics” (Aurelium BioPharma Inc., priority 2005, published 2007)

Tested on: SKOV3 ovarian tumor cells
Assay: SKOV3 tumor xenograft in nude mice, relative tumor volume (Example 1)
Type: in vivo
Conditions: SKOV3 tumors in nude mice; intravenous
Procedure: Starting on the first day of treatment, tumor growth was measured by […], and the volume of the xenograft was monitored every 4 days. […] Mice were then treated with vimentin-directed therapeutics. […] Taxol was obtained commercially from Sigma Corp. (St. Louis, Mo.).
All treatments were introduced by intravenous administration. Mice were then sacrificed and tumors excised for relative volume determinations.

## CC(=O)O[C@H]1C(=O)[C@@]2(C)[C@H]([C@H](OC(=O)c3ccccc3)[C@]3(O)C[C@H](OC(=O)[C@H](O)[C@@H](NC(=O)c4ccccc4)c4ccccc4)C(C)=C1C3(C)C)[C@]1(OC(C)=O)CO[C@@H]1C[C@@H]2O [taxol]
  tumor size/volume relative to other treatment groups: smaller than tumors in mice treated with vehicle or isotypic control, but not as small as the tumors isolated from mice treated with anti-vimentin antibodies and taxol together
